Assay results reported in US6617438B1, “Oligoribonucleotides with enzymatic activity” (Sirna Therapeutics, Inc., priority 1997, dated 2003).
Several values for one entry are separate records, joined by “and”; a condition that tells them apart may be missing. Equal entries are not always repeated. Where two headings read alike, the source gives them in different places. Marks after values point to notes of the source that are not given here.

Tests used:
[1] = molecular target: T1, Bacteriophage T7 RNA polymerase (wild type) (Escherichia phage T7, UniProt P00573); assay: biochemical; type: biochemical; conditions: for activity at 2000 µM: read-out: % ribo control
T1 construct: purchased Boehringer Mannheim
T1 sequence (P00573 whole entry): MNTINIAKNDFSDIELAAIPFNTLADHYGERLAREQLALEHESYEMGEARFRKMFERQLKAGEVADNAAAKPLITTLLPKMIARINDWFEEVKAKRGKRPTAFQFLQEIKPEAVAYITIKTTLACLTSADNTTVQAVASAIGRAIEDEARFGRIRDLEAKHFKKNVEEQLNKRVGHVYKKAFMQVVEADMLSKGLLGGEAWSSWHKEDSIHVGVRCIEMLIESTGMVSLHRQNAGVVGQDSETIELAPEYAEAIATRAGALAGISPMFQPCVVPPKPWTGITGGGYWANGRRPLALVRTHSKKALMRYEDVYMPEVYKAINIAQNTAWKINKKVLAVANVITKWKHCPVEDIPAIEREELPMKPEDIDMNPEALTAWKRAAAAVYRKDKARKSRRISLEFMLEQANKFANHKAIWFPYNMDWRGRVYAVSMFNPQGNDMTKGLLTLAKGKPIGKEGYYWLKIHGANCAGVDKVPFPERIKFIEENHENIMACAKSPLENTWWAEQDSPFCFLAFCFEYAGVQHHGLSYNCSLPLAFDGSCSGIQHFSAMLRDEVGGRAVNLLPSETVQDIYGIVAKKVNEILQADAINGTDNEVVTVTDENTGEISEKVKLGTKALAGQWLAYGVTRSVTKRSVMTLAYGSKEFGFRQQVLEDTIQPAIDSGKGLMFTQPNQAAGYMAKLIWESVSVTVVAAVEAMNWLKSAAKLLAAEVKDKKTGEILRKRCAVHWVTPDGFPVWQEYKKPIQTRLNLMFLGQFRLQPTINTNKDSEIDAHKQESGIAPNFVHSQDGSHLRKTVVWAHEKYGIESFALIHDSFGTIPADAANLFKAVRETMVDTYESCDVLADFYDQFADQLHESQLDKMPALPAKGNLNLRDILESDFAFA
Method: Bacteriophage T7 RNA polymerase was purchased from Boehringer Mannheim at 0.4 U/μL concentration. Applicant used the commercial buffer supplied with the enzyme and 0.2 μCi alpha-^32P NTP in a 50 μL reaction with nucleotides triphosphates at 2 mM each. The template was a double-stranded PCR fragment, which was used in previous screens. Reactions were carried out at 37° C. for 1 hour. Ten μL of the sample was run on a 7.5% analytical PAGE and bands were quantitated using a Phosphorlmager.

[2] = molecular target: T2, Y639F mutant T7 polymerase (Escherichia phage T7, UniProt P00573, Y639F); type: biochemical, bacteriophage T7
T2 sequence (P00573 whole entry Y639F, looked up): as the sequence (P00573 whole entry) above, with Y639F counted along it

[3] = molecular target: T2, Y639F mutant T7 polymerase; type: biochemical, bacteriophage T7; remark: listed apart in the source
BT-474 xenografts = conditions: combination study, dose not given; cited from earlier work
[4] = high-risk patients; cited from earlier work
[5] = COND# 1: 20 mM MgCl2, 10% methanol, 1 mM LiCl, no PEG, 25° C.
[6] = COND# 2: 20 mM MgCl2, 10% methanol, 1 mM LiCl, 4% PEG, 25° C.
[7] = COND# 3: 12 mM MgCl2, 4% PEG, 25° C.
[8] = COND# 4: 12 mM MgCl2, 10% methanol, 4% PEG, 25° C.
[9] = COND# 5: 12 mM MgCl2, 1 mM LiCl, 4% PEG, 25° C.
[10] = COND# 6: 12 mM MgCl2, 10% methanol, 1 mM LiCl, 4% PEG, 25° C.
[11] = COND# 7: 20 mM MgCl2, 10% methanol, 1 mM LiCl, no PEG, 37° C.
[12] = COND# 8: 20 mM MgCl2, 10% methanol, 1 mM LiCl, 4% PEG, 37° C.
[13] = COND# 9: 12 mM MgCl2, 4% PEG, 37° C.
[14] = COND# 10: 12 mM MgCl2, 10% methanol, 4% PEG, 37° C.
[15] = COND# 11: 12 mM MgCl2, 1 mM LiCl, 4% PEG, 37° C.
[16] = COND# 12: 12 mM MgCl2, 10% methanol, 1 mM LiCl, 4% PEG, 37° C.
[17] = wild type T7 polymerase, commercial buffer, 37° C., 1 hour, label GTP
[18] = together with 2′-his-UTP, rATP and rGTP, condition number 9
[19] = together with rUTP, condition number 9
[20] = together with 2′-his-UTP and 2′-amino-CTP, same buffer (condition 9)
[21] = together with rUTP and rCTP, same buffer (condition 9)
[22] = wild type T7 polymerase, commercial buffer, 37° C., 1 hour, label ATP

Compound: 2′-F—GTP
- % ribo control [1]: 4%

Compound: 2′-dGTP
- % ribo control [1]: 3%

Compound: 2′-deoxy-2′-amino-CTP [2′-NH2—CTP]
- full-length transcript, percent compared to all-rNTP control [2, 5]: 11%
- full-length transcript, percent compared to all-rNTP control [2, 6]: 37%
- full-length transcript, percent compared to all-rNTP control [2, 7]: 45%
- full-length transcript, percent compared to all-rNTP control [2, 8]: 64%
- full-length transcript, percent compared to all-rNTP control [2, 9]: 25%
- full-length transcript, percent compared to all-rNTP control [2, 10]: 70%
- full-length transcript, percent compared to all-rNTP control [2, 11]: 26%
- full-length transcript, percent compared to all-rNTP control [2, 12]: 54%
- full-length transcript, percent compared to all-rNTP control [2, 13]: 292%
- full-length transcript, percent compared to all-rNTP control [2, 14]: 264%
- full-length transcript, percent compared to all-rNTP control [2, 15]: 109%
- full-length transcript, percent compared to all-rNTP control [2, 16]: 244%
- % ribo control [1, 17]: 59%
- percentage of incorporation compared to the all-RNA control [3, 18]: 9.5* %
- percentage of incorporation compared to the all-RNA control [3, 19]: 232.7%

Compound: 2′-deoxy-2′-amino-UTP [2′-NH2—UTP]
- % ribo control [1]: 39%

Compound: Nc1ncnc2c1ncn2[C@@H]1O[C@H](COP(=O)(O)OP(=O)(O)OP(=O)(O)O)[C@@H](O)[C@H]1F [2′-F—ATP, 2′-deoxy-2′-fluoro-adenine triphosphate]
- full-length transcript, percent compared to all-rNTP control [2, 5]: 227%
- full-length transcript, percent compared to all-rNTP control [2, 6]: 252%
- full-length transcript, percent compared to all-rNTP control [2, 7]: 98%
- full-length transcript, percent compared to all-rNTP control [2, 8]: 103%
- full-length transcript, percent compared to all-rNTP control [2, 9]: 100%
- full-length transcript, percent compared to all-rNTP control [2, 10]: 116%
- full-length transcript, percent compared to all-rNTP control [2, 11]: 288%
- full-length transcript, percent compared to all-rNTP control [2, 12]: 278%
- full-length transcript, percent compared to all-rNTP control [2, 13]: 471%
- full-length transcript, percent compared to all-rNTP control [2, 14]: 198%
- full-length transcript, percent compared to all-rNTP control [2, 15]: 317%
- full-length transcript, percent compared to all-rNTP control [2, 16]: 185%
- percentage of incorporation compared to the all-RNA control [3, 20]: 4%
- percentage of incorporation compared to the all-RNA control [3, 21]: 222.6%

Compound: O=c1ccn([C@@H]2O[C@H](COP(=O)(O)OP(=O)(O)OP(=O)(O)O)[C@@H](O)[C@H]2F)c(=O)[nH]1 [2′-F—UTP, 2′-deoxy-2′-fluoro-uridine triphosphate]
- full-length transcript, percent compared to all-rNTP control [2]: 100%
- activity at 2000 µM ([1]; 1 h): 100%

Compound: Nc1nc(N)c2ncn([C@@H]3O[C@H](CO)C(O)C3N)c2n1 (stereo partly drawn) [2′-NH2—DAP, 2′-deoxy-2′amino-2,6-diaminopurine riboside]
- full-length transcript, percent compared to all-rNTP control [2]: 0% and 1%
- percentage of incorporation compared to the all-RNA control [3]: 8.9* % and 9.6%

Compound: CSCO[C@@H]1[C@H](O)[C@@H](COP(=O)(O)OP(=O)(O)OP(=O)(O)O)O[C@H]1n1ccc(=O)[nH]c1=O [2′-O-MTM-UTP, 2′-O-methylthiomethyl-uridine-5 ′-triphosphate]
- activity at 2000 µM [1, 22]: 64%

Compound: CSCO[C@@H]1[C@H](O)[C@@H](CO)O[C@H]1n1cnc2c(N)ncnc21 [2′-O—MTM—ATP, 2′-O-methylthiomethyl adenosine]
- full-length transcript, percent compared to all-rNTP control [2]: 0% and 1%
- activity at 2000 µM [1, 17]: 1%

Compound: CSCO[C@@H]1[C@H](O)[C@@H](CO)O[C@H]1n1ccc(N)nc1=O [2′-O—MTM—CTP, 2′-O-methylthiomethyl cytidine]
- full-length transcript, percent compared to all-rNTP control [2]: 2% and 4% and 5% and 3% and 1%
- percentage of incorporation compared to the all-RNA control [3]: 5.9% and 5.1%

Compound: CSCO[C@@H]1[C@H](O)[C@@H](CO)O[C@H]1n1cnc2c(=O)[nH]c(N)nc21 [2′-O—MTM—GTP, 2′-O-methylthiomethyl guanosine]
- full-length transcript, percent compared to all-rNTP control [2]: 6% and 3% and 1% and 4% and 2% and 0%
- activity at 2000 µM [1, 22]: 3%

Compound: CO[C@@H]1[C@H](O)[C@@H](COP(=O)(O)OP(=O)(O)OP(=O)(O)O)O[C@H]1n1cnc2c(N)ncnc21 [2′-O—Me—ATP]
- full-length transcript, percent compared to all-rNTP control [2]: 0% and 2% and 1%

Compound: COC1C(O)[C@@H](CO)O[C@H]1n1cnc2c(N)nc(N)nc21 (stereo partly drawn) [2′-O—Me—DAP, 2′-O-methyl-2,6-diaminopurine riboside]
- full-length transcript, percent compared to all-rNTP control [2]: 4% and 5% and 3%
- percentage of incorporation compared to the all-RNA control [3]: 1.9% and 5.7%

Compound: CO[C@@H]1[C@H](O)[C@@H](COP(=O)(O)OP(=O)(O)OP(=O)(O)O)O[C@H]1n1cnc2c(=O)[nH]c(N)nc21 [2′-O—Me—GTP, 2′-O-methyl-guanosine-5′-Triphosphate]
- full-length transcript, percent compared to all-rNTP control [2]: 4% and 5% and 3% and 2%
- activity at 2000 µM ([1]; 1 h): 3%

Compound: NO[C@@H]1[C@H](O)[C@@H](CO)O[C@H]1n1ccc(=O)[nH]c1=O [2′-O—NH2—UTP, 2′-O-amino-uridine]
- activity at 2000 µM [1, 22]: 1%

Compound: Nc1ncnc2c1ncn2[C@H]1C[C@H](O)[C@@H](COP(=O)(O)OP(=O)(O)OP(=O)(O)O)O1 [2′-dATP]
- full-length transcript, percent compared to all-rNTP control [2, 5]: 9%
- full-length transcript, percent compared to all-rNTP control [2, 6]: 3%
- full-length transcript, percent compared to all-rNTP control [2, 7]: 19%
- full-length transcript, percent compared to all-rNTP control [2, 8]: 23%
- full-length transcript, percent compared to all-rNTP control [2, 9]: 9%
- full-length transcript, percent compared to all-rNTP control [2, 10]: 24%
- full-length transcript, percent compared to all-rNTP control [2, 11]: 6%
- full-length transcript, percent compared to all-rNTP control [2, 12]: 3%
- full-length transcript, percent compared to all-rNTP control [2, 13]: 84%
- full-length transcript, percent compared to all-rNTP control [2, 14]: 70%
- full-length transcript, percent compared to all-rNTP control [2, 15]: 28%
- full-length transcript, percent compared to all-rNTP control [2, 16]: 51%
- percentage of incorporation compared to the all-RNA control [3, 20]: 2.3%
- percentage of incorporation compared to the all-RNA control [3, 21]: 146.3%

Compound: NCCC(=O)N[C@@H]1[C@H](O)[C@@H](CO)O[C@H]1n1ccc(=O)[nH]c1=O [2′-β NH2-ala-UTP, 2′-(N-β-alanyl)amino-2′-deoxy uridine]
- activity at 2000 µM [1, 22]: 3%

Compound: COC1C(O)[C@@H](CO)O[C@H]1n1cc(CCCN)c(=O)[nH]c1=O (stereo partly drawn) [5-(3-aminopropyl)-2′-O-methyl uridine]
- full-length transcript, percent compared to all-rNTP control [2]: 4% and 10%
- activity at 2000 µM [1, 17]: 0%

Compound: Nc1ncnc2c1ncn2[C@@H]1O[C@H](COP(=O)(O)OP(=O)(O)OP(=O)(O)O)[C@@H](O)[C@H]1O [ATP]
- percentage of incorporation compared to the all-RNA control [3, 20]: 15.7%
- percentage of incorporation compared to the all-RNA control [3, 21]: 100%

Compound: Nc1ccn([C@@H]2O[C@H](COP(=O)(O)OP(=O)(O)OP(=O)(O)O)[C@@H](O)[C@H]2O)c(=O)n1 [CTP]
- percentage of incorporation compared to the all-RNA control [3, 18]: 16.1%
- percentage of incorporation compared to the all-RNA control [3, 19]: 100%

Compound: CC(N)C(=O)NC1C(O)[C@@H](CO)O[C@H]1n1ccc(=O)[nH]c1=O (stereo partly drawn) [ala-2′-NH2—UTP, 2′-(N-alanyl) amino-2′-deoxy-uridine]
- activity at 2000 µM [1, 22]: 2%

Compound: CC(=O)O[C@H]1C(=O)[C@@]2(C)[C@H]([C@H](OC(=O)c3ccccc3)[C@]3(O)C[C@H](OC(=O)[C@H](O)[C@@H](NC(=O)c4ccccc4)c4ccccc4)C(C)=C1C3(C)C)[C@]1(OC(C)=O)CO[C@@H]1C[C@@H]2O [paclitaxel]
- inhibition of tumor growth (BT-474 xenografts): 35%

Compound: NC(Cc1ccccc1)C(=O)NC1C(O)[C@@H](CO)O[C@H]1n1ccc(=O)[nH]c1=O (stereo partly drawn) [phe-2′-NH2—UTP, 2′-(N-phenylalanyl)amino-2′-deoxy-uridine]
- full-length transcript, percent compared to all-rNTP control [2]: 8% and 6% and 10% and 12% and 7% and 4%
- activity at 2000 µM [1, 22]: 1%

Compound: CC/C(=C(\c1ccccc1)c1ccc(OCCN(C)C)cc1)c1ccccc1 [tamoxifen]
- reduction of breast cancer incidence [4]: 49%
